Consider 75 compounds from the Kinase Knowledgebase extract (Sharma et al. 2016).

In general, IC50 refers to the concentration that inhibits the measured activity by half.

The structures appear in SMILES notation.

In this assay the target is MAPK14 (UniProt Q16539). The assay can be described thus: Inhibition of MAPK14 Kinase Activity.
Sequence of MAPK14 (Q16539 whole entry, looked up): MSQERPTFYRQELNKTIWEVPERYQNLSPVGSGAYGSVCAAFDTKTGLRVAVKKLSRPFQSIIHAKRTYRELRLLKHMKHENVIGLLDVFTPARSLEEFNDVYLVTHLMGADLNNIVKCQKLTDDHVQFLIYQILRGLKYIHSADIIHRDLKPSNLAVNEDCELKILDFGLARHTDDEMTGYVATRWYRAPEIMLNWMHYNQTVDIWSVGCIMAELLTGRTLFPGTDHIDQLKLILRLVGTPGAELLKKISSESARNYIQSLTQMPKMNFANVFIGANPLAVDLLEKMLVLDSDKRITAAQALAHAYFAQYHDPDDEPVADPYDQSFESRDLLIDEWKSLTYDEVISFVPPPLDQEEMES
Consider `Cn1nc(C(C)(C)C)cc1NC(=O)Nc1cc(F)cc(OC2CCN(C(=O)c3ccc4[nH]ccc4c3)CC2)c1`, for which the IC50 was < 5 µM.

`Cn1nc(C(C)(C)C)cc1NC(=O)Nc1cccc(OC2CCN(C(=O)c3ccccc3C(F)(F)F)CC2)c1`: the IC50 was < 5 µM.

Regarding `Cn1nc(C(C)(C)C)cc1NC(=O)Nc1cc(F)cc(OC2CCN(C(=O)C(C)(C)C)CC2)c1`, the IC50 amounted to 0.019 µM.

Consider `Cn1nc(C(C)(C)C)cc1NC(=O)Nc1ccc(OC2CCN(C(=O)c3ccccc3Cl)CC2)cc1`, for which the IC50 is < 5 µM.

On to `Cn1nc(C(C)(C)C)cc1NC(=O)Nc1ccc(CN2CCN(C(=O)c3cc(Cl)sc3Cl)CC2)cc1`, for which the concentration for half-maximal inhibition (IC50) was < 5 µM.

With `Cc1ccc(-n2nc(C(C)(C)C)cc2NC(=O)Nc2ccc(N3CCN(C(=O)CC4CCCC4)CC3)cc2)cc1`, the IC50 is < 5 µM.

With `COc1cccc(F)c1C(=O)N1CCC(Oc2cc(F)cc(NC(=O)Nc3cc(C(C)(C)C)nn3C)c2)CC1`, the half-maximal inhibitory concentration (IC50) is < 5 µM.

`CC(C)(C)c1cc(NC(=O)Nc2ccc(OC3CCN(C(=O)c4c(Cl)cccc4Cl)CC3)cc2)[nH]n1`: the IC50 was < 5 µM.

Turning to `Cn1nc(C(C)(C)C)cc1NC(=O)Nc1ccc(OC2CCN(C(=O)C3CCCC3)CC2)cc1`, the half-inhibitory concentration (IC50) was < 5 µM.

As to `Cn1nc(C(C)(C)C)cc1NC(=O)Nc1cccc(OC2CCN(C(=O)c3ccc(F)cc3F)CC2)c1`, the IC50 is < 5 µM.

For `Cn1nc(C(C)(C)C)cc1NC(=O)Nc1cccc(OC2CCN(C(=O)c3cc[nH]c3)CC2)c1`, the concentration for half-maximal inhibition (IC50) was < 5 µM.

`Cc1ccc(-n2nc(C(C)(C)C)cc2NC(=O)Nc2cc(F)cc(OC3CCN(C(=O)C4CC4)CC3)c2)cc1`: the IC50 was < 5 µM.

Turning to `Cn1nc(C(C)(C)C)cc1NC(=O)Nc1cccc(OC2CCN(C(=O)c3ccc(Cl)s3)CC2)c1`, the half-maximal inhibitory concentration (IC50) was < 5 µM.

`Cn1nc(C(C)(C)C)cc1NC(=O)Nc1ccc(CN2CCN(C(=O)c3ccc(F)cc3)CC2)cc1`: the concentration for half-maximal inhibition (IC50) is < 5 µM.

Take `Cn1nc(C(C)(C)C)cc1NC(=O)Nc1cc(F)cc(OC2CCN(C(=O)c3ccccc3OC(F)(F)F)CC2)c1`: the IC50 is < 5 µM.

On to `Cn1nc(C(C)(C)C)cc1NC(=O)Nc1cc(F)cc(OC2CCN(C(=O)C(Cl)(Cl)Cl)CC2)c1`, for which the IC50 was < 5 µM.

For `Cn1nc(C(C)(C)C)cc1NC(=O)Nc1cc(F)cc(OC2CCN(C(=O)c3ccccc3)CC2)c1`, the IC50 was < 5 µM.

Turning to `Cn1nc(C(C)(C)C)cc1NC(=O)Nc1cc(F)cc(OC2CCN(C(=O)c3ccccc3F)CC2)c1`, the IC50 was < 5 µM.

Consider `CCn1nc(C(C)(C)C)cc1NC(=O)Nc1ccc(CN2CCN(C(=O)c3c(Cl)cccc3Cl)CC2)cc1F`, for which the half-maximal inhibitory concentration (IC50) is < 5 µM.

For `Cn1nc(C(C)(C)C)cc1NC(=O)Nc1cccc(OC2CCN(C(=O)c3c(Cl)cccc3Cl)CC2)c1`, the half-inhibitory concentration (IC50) was < 5 µM.

As to `Cn1nc(C(C)(C)C)cc1NC(=O)Nc1cc(F)cc(OC2CCN(C(=O)c3cccc(CN4CCOCC4)c3)CC2)c1`, the IC50 was < 5 µM.

In the case of `Cn1nc(C(C)(C)C)cc1NC(=O)Nc1ccc(CN2CCN(C(=O)c3c(Cl)cccc3Cl)CC2)cc1`, the 50% inhibitory concentration (IC50) was < 5 µM.

As for `Cn1nc(C(C)(C)C)cc1NC(=O)Nc1ccc(OC2CCN(C(=O)c3cc[nH]c3)CC2)cc1`, the IC50 was < 5 µM.

Take `Cn1nc(C(C)(C)C)cc1NC(=O)Nc1cccc(OC2CCN(C(=O)c3c(F)cccc3Cl)CC2)c1`: the IC50 is < 5 µM.

As to `Cn1nc(C(C)(C)C)cc1NC(=O)Nc1ccc(CN2CCN(C(=O)c3ccccc3Cl)CC2)cc1`, the IC50 was < 5 µM.

Turning to `Cn1nc(C(C)(C)C)cc1NC(=O)Nc1cc(F)cc(OC2CCN(C(=O)c3c(F)cccc3Cl)CC2)c1`, the IC50 is < 5 µM.

For `Cn1nc(C(C)(C)C)cc1NC(=O)Nc1ccc(CN2CCN(C(=O)c3ccc(F)cc3F)CC2)cc1`, the concentration for half-maximal inhibition (IC50) was < 5 µM.

For `Cn1nc(C(C)(C)C)cc1NC(=O)Nc1cccc(OC2CCN(C(=O)OCc3ccccc3)CC2)c1`, the half-maximal inhibitory concentration (IC50) was < 5 µM.

With `Cn1nc(C(C)(C)C)cc1NC(=O)Nc1cccc(OC2CCN(C(=O)c3c(F)cccc3F)CC2)c1`, the IC50 is < 5 µM.

For the compound `Cc1ccc(-n2nc(C(C)(C)C)cc2NC(=O)Nc2ccc(N3CCN(C(=O)C(C)C)CC3)cc2)cc1`, the IC50 was < 5 µM.

On to `Cc1ccc(-n2nc(C(C)(C)C)cc2NC(=O)Nc2ccc(N3CCN(C(=O)C4CC4)CC3)cc2)cc1`, for which the IC50 was < 5 µM.

For `Cc1ccc(-n2nc(C(C)(C)C)cc2NC(=O)Nc2ccc(OC3CCN(C(=O)C4CC4)CC3)cc2)cc1`, the IC50 was < 5 µM.

As for `Cn1nc(C(C)(C)C)cc1NC(=O)Nc1cc(F)cc(OC2CCN(C(=O)c3ccccc3C(F)(F)F)CC2)c1`, the concentration for half-maximal inhibition (IC50) was < 5 µM.

In the case of `CC(C)n1nc(C(C)(C)C)cc1NC(=O)Nc1ccc(CN2CCN(C(=O)c3c(Cl)cccc3Cl)CC2)cc1F`, the IC50 is < 5 µM.

For `Cc1ccc(-n2nc(C(C)(C)C)cc2NC(=O)Nc2ccc(CN3CCN(C(=O)c4c(F)cccc4F)CC3)cc2)cc1`, the concentration for half-maximal inhibition (IC50) is < 5 µM.

For `Cn1nc(C(C)(C)C)cc1NC(=O)Nc1ccc(OC2CCN(C(=O)c3c[nH]cn3)CC2)cc1`, the IC50 is < 5 µM.

As to `Cn1nc(C(C)(C)C)cc1NC(=O)Nc1ccc(CN2CCN(C(=O)c3cccnc3)CC2)cc1`, the half-maximal inhibitory concentration (IC50) is < 5 µM.

Regarding `Cc1ccc(-n2nc(C(C)(C)C)cc2NC(=O)Nc2ccc(N3CCN(C(N)=O)CC3)cc2)cc1`, the concentration for half-maximal inhibition (IC50) is < 5 µM.

In the case of `Cc1nn(C)c(C)c1C(=O)N1CCC(Oc2ccc(NC(=O)Nc3cn(C)nc3C(C)(C)C)cc2)CC1`, the IC50 was < 5 µM.

With `Cn1nc(C(C)(C)C)cc1NC(=O)Nc1cc(F)cc(OC2CCN(C(=O)c3sccc3Cl)CC2)c1`, the concentration for half-maximal inhibition (IC50) is < 5 µM.

For `Cc1ccsc1C(=O)N1CCC(Oc2ccc(NC(=O)Nc3cc(C(C)(C)C)nn3C)cc2)CC1`, the half-maximal inhibitory concentration (IC50) is < 5 µM.

Turning to `CC(C)(C)c1cc(NC(=O)Nc2ccc(OC3CCN(C(=O)c4c(F)cccc4F)CC3)cc2)[nH]n1`, the 50% inhibitory concentration (IC50) is < 5 µM.

Take `Cn1nc(C(C)(C)C)cc1NC(=O)Nc1ccc(CN2CCN(C(=O)c3c(F)cccc3F)CC2)cc1F`: the IC50 is < 5 µM.

As to `Cn1nc(C(C)(C)C)cc1NC(=O)Nc1ccc(OC2CCN(C(=O)c3cccnc3Cl)CC2)cc1`, the IC50 is < 5 µM.

With `CN1CCN(Cc2ccc(C(=O)N3CCC(Oc4cc(F)cc(NC(=O)Nc5cc(C(C)(C)C)nn5C)c4)CC3)cc2)CC1`, the half-maximal inhibitory concentration (IC50) is < 5 µM.

On to `Cn1nc(C(C)(C)C)cc1NC(=O)Nc1cc(F)cc(OC2CCN(C(=O)c3ccc4cc[nH]c4c3)CC2)c1`, for which the half-inhibitory concentration (IC50) is < 5 µM.

On to `Cn1nc(C(C)(C)C)cc1NC(=O)Nc1ccc(OC2CCN(C(=O)c3c(Cl)cccc3Cl)CC2)cc1`, for which the IC50 was < 5 µM.

Take `Cn1nc(C(C)(C)C)cc1NC(=O)Nc1ccc(OC2CCN(C(=O)C3(c4ccccc4)CC3)CC2)cc1`: the IC50 is < 5 µM.

Regarding `Cn1nc(C(C)(C)C)cc1NC(=O)Nc1ccc(OC2CCN(C(=O)OC(C)(C)C)CC2)cc1`, the IC50 is < 5 µM.

In the case of `Cn1nc(C(C)(C)C)cc1NC(=O)Nc1ccc(OC2CCN(C(=O)Oc3ccccc3C(F)(F)F)CC2)cc1`, the 50% inhibitory concentration (IC50) is < 5 µM.

Consider `Cc1ccc(-n2nc(C(C)(C)C)cc2NC(=O)NC2CCN(C(=O)c3ccc(S(C)(=O)=O)cc3)CC2)cc1`, for which the IC50 was < 5 µM.

With `Cc1ccc(OC2CCN(C(=O)c3ccccc3Cl)CC2)cc1NC(=O)Nc1cc(C(C)(C)C)nn1C`, the IC50 is < 5 µM.

For `Cn1nc(C(C)(C)C)cc1NC(=O)Nc1ccc(CN2CCN(C(=O)c3ccc(F)cc3F)CC2)c(F)c1`, the 50% inhibitory concentration (IC50) was < 5 µM.

Take `Cc1ccc(-n2nc(C(C)(C)C)cc2NC(=O)Nc2ccc(OC3CCN(C(=O)c4c(Cl)cccc4Cl)CC3)c3ccccc23)cc1`: the half-inhibitory concentration (IC50) was < 5 µM.

As for `COc1ccc(C(=O)N2CCC(Oc3ccc(NC(=O)Nc4cc(C(C)(C)C)nn4C)cc3)CC2)c(OC)n1`, the IC50 was < 5 µM.

Consider `Cn1nc(C(C)(C)C)cc1NC(=O)Nc1cc(F)cc(OC2CCN(C(=O)c3c(Cl)cccc3Cl)CC2)c1`, for which the 50% inhibitory concentration (IC50) is < 5 µM.

For `CC(C)C(=O)N1CCC(Oc2ccc(NC(=O)Nc3cc(C(C)(C)C)nn3C)cc2)CC1`, the 50% inhibitory concentration (IC50) is < 5 µM.

Regarding `Cn1nc(C(C)(C)C)cc1NC(=O)Nc1cccc(OC2CCN(C(=O)c3ccccc3F)CC2)c1`, the IC50 is < 5 µM.

Consider `CC(=O)N1CCN(Cc2ccc(NC(=O)Nc3cc(C(C)(C)C)nn3-c3ccc(C)cc3)cc2)CC1`, for which the half-maximal inhibitory concentration (IC50) is < 5 µM.

Take `CO[C@H](C)C(=O)N1CCN(c2ccc(NC(=O)Nc3cc(C(C)(C)C)nn3-c3ccc(C)cc3)cc2)CC1`: the IC50 was < 5 µM.

Turning to `Cn1nc(C(C)(C)C)cc1NC(=O)Nc1cc(F)cc(OC2CCN(C(N)=O)CC2)c1`, the concentration for half-maximal inhibition (IC50) is < 5 µM.

Turning to `COc1ccccc1C(=O)N1CCN(Cc2ccc(NC(=O)Nc3cc(C(C)(C)C)nn3C)cc2)CC1`, the IC50 is < 5 µM.

In the case of `COc1ncccc1C(=O)N1CCC(Oc2ccc(NC(=O)Nc3cc(C(C)(C)C)nn3C)cc2)CC1`, the IC50 is < 5 µM.

On to `Cn1nc(C(C)(C)C)cc1NC(=O)Nc1ccc(OC2CCN(C(=O)c3ccccc3C(F)(F)F)CC2)cc1`, for which the concentration for half-maximal inhibition (IC50) was < 5 µM.

`Cc1ccc(-n2nc(C(C)(C)C)cc2NC(=O)Nc2ccc(OC3CCN(C(=O)c4c(Cl)cccc4Cl)CC3)cc2)cc1`: the IC50 was < 5 µM.

Regarding `Cn1nc(C(C)(C)C)cc1NC(=O)Nc1cccc(OC2CCN(C(=O)c3ccccc3OC(F)(F)F)CC2)c1`, the concentration for half-maximal inhibition (IC50) was < 5 µM.

For the compound `Cc1ccc(-n2nc(C(C)(C)C)cc2NC(=O)Nc2ccc(CN3CCN(C(=O)C4CC4)CC3)cc2)cc1`, the 50% inhibitory concentration (IC50) was < 5 µM.

`Cc1ccc(-n2nc(C(C)(C)C)cc2NC(=O)Nc2ccc(N3CCN(C(=O)C4CCOC4)CC3)cc2)cc1` (stereo not given): the IC50 is < 5 µM.

Regarding `COc1cccc(F)c1C(=O)N1CCC(Oc2cccc(NC(=O)Nc3cc(C(C)(C)C)nn3C)c2)CC1`, the IC50 was < 5 µM.

As for `CC(C)n1nc(C(C)(C)C)cc1NC(=O)Nc1ccc(CN2CCN(C(=O)c3c(Cl)cccc3Cl)CC2)cc1`, the IC50 is < 5 µM.

For the compound `Cn1nc(C(C)(C)C)cc1NC(=O)Nc1cc(F)cc(OC2CCN(C(=O)C3(C)CC3(Cl)Cl)CC2)c1` (stereo not given), the IC50 is < 5 µM.

Take `Cn1nc(C(C)(C)C)cc1NC(=O)Nc1ccc(OC2CCN(C(=O)c3cn[nH]c3)CC2)cc1`: the half-maximal inhibitory concentration (IC50) is < 5 µM.

For `COc1ccc(C(=O)N2CCC(Oc3cccc(NC(=O)Nc4cc(C(C)(C)C)nn4C)c3)CC2)c(OC)n1`, the half-inhibitory concentration (IC50) is < 5 µM.

For the compound `Cn1nc(C(C)(C)C)cc1NC(=O)Nc1cc(F)cc(OC2CCN(C(=O)c3c[nH]c4ccccc34)CC2)c1`, the IC50 was < 5 µM.

As to `Cn1nc(C(C)(C)C)cc1NC(=O)Nc1cc(OC2CCN(C(=O)c3ccccc3Cl)CC2)cc(C(F)(F)F)c1`, the IC50 was < 5 µM.
